Experimental data published in patent US10172911B2, “Methods of modulating erythropoiesis with arginine vasopressin receptor 1B molecules” (The United States of America, as represented by the …, priority 2013, dated 2019).
“Also recorded” adds a separate entry of the source.

Assays:
[1] = test system: human CD34+ hematopoietic progenitors; test: Intracellular Ca2+ measurement in Fura-2 loaded human CD34+ hematopoietic progenitors; type: cell-based; settings: human CD34+ cells, agonist stimulation
Procedure: Human BMSCs were loaded with Fura-2 and the cells were stimulated with AVP, or OXT. Intracellular Ca^2+ concentration was assayed as described before (Ely, J. A. et al. J Biol Chem 266, 18635-18641 (1991). To study their response to AVP and specific AVP receptor agonists and antagonists human CD34+ hematopoietic progenitors were Fura-2 loaded and Cytoplasmic Ca2+ measurements were performed in cells kept in suspension using a fluorescence spectrophotometer (Deltascan, Photon Technology International). Ratiometric measurements were recorded at 340/380 nm excitation and 500 nm emission and the ratios were plotted against time. Ionomycin (10 μM) was added at the end of each run to determine the maximum fluorescence ratio.

mice [2] = test: Single intraperitoneal AVP injection, bone marrow populations 16 hours later; type: in vivo, mouse; settings: i.p. 100 μg/kg, bone marrow 16 hours later
Procedure: Short-term effect of a single intraperitoneal AVP injection: [Arg8]-Vasopressin (Ana-spec) (100 μg/kg body weight) together with 20 mg/kg body weight o-phenantroline (Sigma-Aldrich) or vehicle PBS with 20 mg/kg body weight o-phenantroline. 16 hours later bone marrow (two hind limbs) and spleen cells were obtained to study the distribu-tion of HSCs and multipotent progenitors (MPP) as well as intermediate lineage-com-mitted progenitors and the erythroid populations as described before (n=5/group) (Wilson et al. Cell 135, 1118-1129, doi:10.1016/j.cell.2008.10.048 (2008); Pronk, C. J. et al. Cell Stem Cell 1, 428-442, doi:10.1016/j.stem.2007.07.005 (2007); Weissman, I. L. Cell 100, 157-168 (2000). Serial AVP injections: Mice (n=8-9) were injected ip. 2 times/day with AVP 100 μg/kg body weight or PBS for 6.5 days. After day 6.5, mice were euthanized and the erythroid populations (CD71^+, Ter119^+) in spleen and bone marrow were analyzed (Cheshier, S. H. et al., Stem Cells Dev 16, 707-717, doi:10.1089/scd.2007.0017 (2007).

[3] = test system: mouse bone marrow LSK cells; test: BrdU cell proliferation assay, sorted mouse bone marrow LSK cells; type: cell-based; settings: 10^−8M-10^−14M, 2 days culture
Procedure: (§1) Sorted mouse bone marrow LSK cells (10000 cells/well) were plated in a 96 well plate in Stemspan serum free expansion medium ([…] Technologies, Vancouver, Canada) with Pen/Strep, and the following hematopoietic factors: 100 ng/ml TPO, 50 ng/ml FLT3L, 50 ng/ml IL-3 and SCF 100 ng/ml (Peprotech, Rocky Hill, N.J.). Cells were treated with […] (Sigma-Aldrich, St. Louis, Mo.). When using human CD34^+ cells (5000 cells/well), human SCF, TPO, FLT3L and G-CSF (Peprotech, each at 50-100 ng/ml) were added to the Stemspan medium. Cells were treated with 10^−8M-10^−14M AVP. After 24 hours, BrdU at a 1:1000 concentration was added to the cultures and incorporation of BrdU was measured using the Cell Proliferation ELISA BrdU kit (Roche, Mannheim, Germany) after another 24 hours of incubation.

human CD34^+ cells [4] = test: Brattleboro/LE rat BMSC and human CD34+ progenitor co-culture, BrdU; type: cell-based; settings: AVP 10^−13 M
Procedure: Rat BMSCs were isolated and cultured from the bone marrow of 5-6 weeks old male Brattleboro (animals that lack the ability to produce vasopressin) and Long-Evans rats (control strain for the Brattleboro rats) as described before. For flow cytometry studies, 100000 rat BMSCs per well were plated in αMEM medium (20% FBS) in 12 well plates in quadruplicates and incubated overnight. Next day, medium was removed and 200000 human CD34 cells per well were added in Stemspan medium with factors (human SCF, TPO, FLT3L and G-CSF 100 ng/ml). Co-culture was stimulated with AVP or left unstimulated (PBS) and next day BrdU was added. After 24 hours the cells were trypsinized, brought up in αMEM (20% FBS), resuspended and strained through 70 μm cell strainer. For normalization, Sigma beads were added to each sample tube. Cells were washed with FACS buffer and stained for human CD34 and CD38. The subsequent steps were done according to the BD BrdU Flow kit protocol. At flow cytometry measurements, cell numbers were normalized to Sigma bead numbers.

mice [5] = test: EPO neutralization study in hemorrhage; type: in vivo, mouse
Procedure: To infuse vasopressin into the mice, AVP filled ALZET pumps were implanted subcutaneously on the dorsal aspect of the neck (5 ug/day, Alzet 1007D—7 days, 2002-14 days). Vasopressin was also given immediately and 6 hours later as a bolus injection (100 μg/kg). Alzet pumps were inserted subcutaneously. The dimensions and pump specification are: ALZET, (DURECT Corporation, Cupertino, Calif., USA) mini-osmotic pump models 1007D or 2002. The pumps deliver 0.5 μl/h of the desired substance for a for 2-week period. In some cases, erythropoietin antibody (100 μg/mice) was given before anesthesia with the corresponding control antibody. […] Following the initial hemorrhage blood samples were taken at 2, 4 and in some cases 6 days later to determine hematocrit and corrected reticulocyte values.
In some cases Erythropoietin antibody (100 μg/mice) was given before anesthesia with the corresponding control antibody.

[6] = test system: CD34^+ human hematopoietic progenitor cells; test: cAMP measurement in CD34+ human hematopoietic progenitor cells; type: cell-based; settings: AVP 10^−10 M vs non-stimulated cells
Source text: For cAMP measurements in CD34^+ human hematopoietic progenitor cells derived from two donors. The cAMP femto 2 kit (Cat#62AM5PEB, Cisbio) was used according to manufacturers instructions. The measurements were done on a Wallac Victor2 1420 multilabel counter (Perkin Elmer).

human CD34^+ cells [7] = test: BrdU cell proliferation assay, human CD34+ cells; type: cell-based
Procedure: as §1

What does the source list for `NC(=O)CC[C@@H]1NC(=O)[C@H](Cc2ccccc2)NC(=O)[C@H](Cc2ccc(O)cc2)NC(=O)[C@@H](N)CSSC[C@@H](C(=O)N2CCC[C@H]2C(=O)N[C@@H](CCCN=C(N)N)C(=O)NCC(N)=O)NC(=O)[C@H](CC(N)=O)NC1=O` [AVP, [Arg8]-Vasopressin]?
intracellular calcium levels [1]: increases in their intracellular calcium levels; also recorded: increase in intracellular calcium; also recorded: increased intra-cellular Ca^2+ concentrations; number of HSCs and early multipotent progenitors (MPPs) (mice [2]): No difference was detected; number of red blood cell producing progenitors and blast cells (CMP, MEP, proerythroblast, erythroblasts) (mice [2]): statistically significant increase; proliferation (BrdU incorporation) of mouse LSK cells [3]: induced proliferation; also recorded: stimulated LSK proliferation; also recorded: significantly increased the proliferation; proliferation of CD34+ cells (human CD34^+ cells [4]; Brattleboro-derived BMSCs): failed to induce proliferation; proliferation of CD34+ cells (human CD34^+ cells [4]; LE BMSCs): did cause CD34^+ cells to proliferate; CR numbers (mice [5]; EPO neutralized group, day 6): began to increase CR numbers; CR values over PBS (mice [5]; EPO neutralized, day 4): eliminated this difference; hematocrit values (mice [5]; after EPO neutralization, hemorrhage): significantly increased hematocrit values; CR values over PBS (mice [5]; control mice, day 4 and 6): increased the CR values over PBS; corrected reticulocyte (CR) values, EPO neutralized or control groups, AVP or PBS (mice [5]; day 2): no significant difference; cAMP in human CD34+ progenitors [6]: moderate increase in cAMP; proliferation (BrdU) of human CD34+ cells / HSPCs (human CD34^+ cells [7]): induced proliferation; also recorded: significantly increased the proliferation
